In patent KR20210134284A, “분갈 추출물 또는 이로부터 유래된 화합물을 포함하는 피부 개선용 조성물” (주식회사 엘지생활건강, priority 2018, dated 2020):

Key:
[1] = DPPH free radical scavenging (antioxidant); conditions: 37℃, 30 min, 520 nm, concentration removing 50% of free radicals
[2] = system: type Ⅰ collagen synthesis in human-derived fibroblasts (제1형 콜라겐; 인간 유래 섬유 아세포); assay: Type I collagen synthesis promotion in human fibroblasts (PICP EIA kit); assay type: cell-based; conditions: 48 h; for type I collagen production amount: negative control 150.2 ng/ml
[3] = system: B-16 mouse melanoma cell (쥐의 멜라노마 세포); assay: Melanin production inhibition (whitening), absorbance at 400 nm; assay type: cell-based; conditions: 72 h, 3 days, relative to control, read-out: total melanin inhibition rate
[4] = Anti-glycation activity using L-arginine and glucose; conditions: 70℃, 4 h, 420 nm
[5] = system: RAW264.7 cells, NO production (생쥐의 대식세포인 RAW264.7 세포); assay: NO production inhibition by GRIESS method in LPS-stimulated RAW264.7 cells (anti-inflammatory); assay type: cell-based; conditions: Mus musculus, LPS 1 μg, 24 h, read-out: NO production inhibition rate
[6] = Homo sapiens, Fibroblast, 10 ppm, relative to control, read-out: collagen production increase rate

Row | IC50 [1] | Structure (SMILES) | type I collagen production amount ([2]; 10 ppm) | activation at 10 ppm [2, 6] | inhibition at 10 ppm [3] | glycation inhibition rate ([4]; 10 ppm) | further results
1 | 0.0012 %w/v | COc1c(O)cc2occ(-c3ccc(O)cc3)c(=O)c2c1O [화합물 3, tectorigenin] | 208.1 ng/mL | 38.5% | 32.7% | 34.75% | inhibition at 10 ppm [5]: 51.9%
2 | 0.0015 %w/v | COc1c(O[C@@H]2O[C@H](CO[C@@H]3OC[C@@H](O)[C@H](O)[C@H]3O)[C@@H](O)[C@H](O)[C@H]2O)cc2occ(-c3ccc(O)cc3)c(=O)c2c1O [화합물 1, tectorigenin 7-O-xylosylglucoside] | 202.3 ng/mL | 34.7% | 48.3% | 41.67% | inhibition at 100 ppm [5]: 99.5%
3 | 0.0024 %w/v | COc1c(O[C@@H]2O[C@H](CO)[C@@H](O)[C@H](O)[C@H]2O)cc2occ(-c3ccc(O)cc3)c(=O)c2c1O [화합물 2, tectoridin] | 221.9 ng/mL | 47.7% | 63.1% | 38.95% | inhibition at 100 ppm [5]: 99.5%
4 |  | CNC(=N)NCCC[C@H](N)C(=O)O [L-NMMA, L-NG-monomethylarginine, reference compound] |  |  |  |  | inhibition at 10 ppm [5]: 30.6%
5 |  | N=C(N)NN [Aminoguanidine, reference compound] |  |  |  |  | glycation inhibition rate ([4]; 55 ppm): 48.12%
6 |  | OC[C@H]1O[C@@H](Oc2ccc(O)cc2)[C@H](O)[C@@H](O)[C@@H]1O [알부틴, arbutin, reference compound] |  |  |  |  | inhibition at 100 ppm ([3]; 100 ppm): 47.8%

Row | Structure (SMILES) | IC50 [1] | type I collagen production amount ([2]; 10 ppm) | activation at 10 ppm [2, 6] | inhibition at 10 ppm [3] | glycation inhibition rate ([4]; 10 ppm) | further results
7 | O=C1O[C@H]([C@@H](O)CO)C(O)=C1O [비타민C, reference compound] | 0.0005 %w/v |  |  |  |  | type I collagen production amount ([2]; 50 ppm): 210.9 ng/mL; activation at 50 ppm ([2]; Homo sapiens, Fibroblast, 50 ppm, relative to control, read-out: collagen production increase rate): 40.4%
